The assay concerns the target Menin-MLL (Homo sapiens (Human), UniProt O00255). The assay is described as follows: Determination of binding constants (Ki) to Menin-MLL (HTRF). Conditions: HTRF, 0.25 nM H-FL-Menin, 3.2 nM FITC-MLL-4-43, 24 hr incubation; for Ki: read-out: Menin-MLL Ki HTRF Assay: Ki. For orientation: Time-resolved FRET reads energy transfer from a long-lived donor to a nearby acceptor.

The structures appear in SMILES notation.

Sequence of Menin-MLL (O00255 whole entry): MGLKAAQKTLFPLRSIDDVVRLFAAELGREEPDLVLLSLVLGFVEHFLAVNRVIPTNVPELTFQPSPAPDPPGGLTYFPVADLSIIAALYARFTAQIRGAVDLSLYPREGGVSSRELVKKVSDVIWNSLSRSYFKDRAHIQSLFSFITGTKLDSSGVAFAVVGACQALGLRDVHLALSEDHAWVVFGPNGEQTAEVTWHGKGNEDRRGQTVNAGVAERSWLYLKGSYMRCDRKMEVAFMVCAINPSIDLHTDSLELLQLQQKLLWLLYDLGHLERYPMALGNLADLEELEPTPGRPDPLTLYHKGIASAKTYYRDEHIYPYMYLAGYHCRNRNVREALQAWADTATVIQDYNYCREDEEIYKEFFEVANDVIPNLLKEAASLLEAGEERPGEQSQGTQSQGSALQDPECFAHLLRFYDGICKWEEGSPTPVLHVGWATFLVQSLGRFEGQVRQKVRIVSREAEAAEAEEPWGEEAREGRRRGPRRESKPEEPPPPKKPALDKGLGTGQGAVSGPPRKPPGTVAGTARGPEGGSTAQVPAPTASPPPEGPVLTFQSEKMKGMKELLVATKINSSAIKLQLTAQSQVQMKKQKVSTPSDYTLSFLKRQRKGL

The term EC50 denotes the concentration at which the effect is half-maximal. Low readings indicate higher potency in that assay, high ones lower potency in that assay. What is called Ki is a dissociation constant, usually derived from enzyme kinetics or from competition with a known ligand. Regarding `CC(C)N(C(=O)c1cc(F)ccc1Oc1cncnc1N1CC2(CCN(C[C@@H]3CC[C@@H](NS(=O)(=O)C(C)C)CO3)CC2)C1)C1CC1` [Compound 20, N-cyclopropyl-5-fluoro-N-isopropyl-2-((4-(7-(((2S,5R)-5-((1-methylethyl)sulfonamido)tetrahydro-2H-pyran-2-yl)methyl)-2,7-diazaspiro[3.5]nonan-2-yl)pyrimidin-5-yl)oxy)benzamide], the concentration for a half-maximal effect (EC50) was below 50 nM and the Ki was below 1 nM.

With `CC(C)N(C(=O)c1cc(F)ccc1Oc1cncnc1N1CC2(CCN(C[C@@H]3CC[C@@H](NS(=O)(=O)C4COC4)CO3)CC2)C1)C1CC1` [Compound 22, N-cyclopropyl-5-fluoro-N-isopropyl-2-((4-(7-(((2S,5R)-5-(oxetane-3-sulfonamido)tetrahydro-2H-pyran-2-yl)methyl)-2,7-diazaspiro[3.5]nonan-2-yl)pyrimidin-5-yl)oxy)benzamide], the EC50 was below 50 nM and the Ki is below 1 nM.

With `C[C@@H]1COC[C@H](C)N1C(=O)c1cc(F)ccc1Oc1cncnc1N1CC2(CCN(C[C@@H]3CC[C@@H](NS(C)(=O)=O)CO3)CC2)C1` [Compound 23, N-((3R,6S)-6-((2-(5-(2-((3S,5R)-3,5-dimethylmorpholine-4-carbonyl)-4-fluorophenoxy)pyrimidin-4-yl)-2,7-diazaspiro[3.5]nonan-7-yl)methyl)tetrahydro-2H-pyran-3-yl)methanesulfonamide], the EC50 is below 50 nM and the inhibition constant (Ki) was below 1 nM.

Regarding `CCS(=O)(=O)N[C@@H]1CC[C@@H](CN2CCC3(CC2)CN(c2ncncc2Oc2ccc(F)cc2C(=O)N2[C@H](C)COC[C@@H]2C)C3)OC1` [Compound 24, N-((3R,6S)-6-((2-(5-(2-((3S,5R)-3,5-dimethylmorpholine-4-carbonyl)-4-fluorophenoxy)pyrimidin-4-yl)-2,7-diazaspiro[3.5]nonan-7-yl)methyl)tetrahydro-2H-pyran-3-yl)ethanesulfonamide], the EC50 was below 50 nM and the Ki was below 1 nM.

For `CC(C)S(=O)(=O)N[C@@H]1CC[C@@H](CN2CCC3(CC2)CN(c2ncncc2Oc2ccc(F)cc2C(=O)N2[C@H](C)COC[C@@H]2C)C3)OC1` [Compound 25, N-((3R,6S)-6-((2-(5-(2-((3S,5R)-3,5-dimethylmorpholine-4-carbonyl)-4-fluorophenoxy)pyrimidin-4-yl)-2,7-diazaspiro[3.5]nonan-7-yl)methyl)tetrahydro-2H-pyran-3-yl)propane-2-sulfonamide], the EC50 was below 50 nM and the Ki is below 1 nM.

Take `C[C@@H]1COC[C@H](C)N1C(=O)c1cc(F)ccc1Oc1cncnc1N1CC2(CCN(C[C@@H]3CC[C@@H](NS(=O)(=O)C4CC4)CO3)CC2)C1` [Compound 26, N-((3R,6S)-6-((2-(5-(2-((3S,5R)-3,5-dimethylmorpholine-4-carbonyl)-4-fluorophenoxy)pyrimidin-4-yl)-2,7-diazaspiro[3.5]nonan-7-yl)methyl)tetrahydro-2H-pyran-3-yl)cyclopropanesulfonamide]: the EC50 is below 50 nM and the Ki is below 1 nM.

As for `C[C@@H]1COC[C@@H](C)N1C(=O)c1cc(F)ccc1Oc1cncnc1N1CC2(CCN(C[C@@H]3CC[C@@H](NS(C)(=O)=O)CO3)CC2)C1` [Compound 28, N-((3R,6S)-6-((2-(5-(2-((3R,5R)-3,5-dimethylmorpholine-4-carbonyl)-4-fluorophenoxy)pyrimidin-4-yl)-2,7-diazaspiro[3.5]nonan-7-yl)methyl)tetrahydro-2H-pyran-3-yl)methanesulfonamide], the EC50 is below 50 nM and the Ki was below 1 nM.

Regarding `CCS(=O)(=O)N[C@@H]1CC[C@@H](CN2CCC3(CC2)CN(c2ncncc2Oc2ccc(F)cc2C(=O)N2[C@H](C)COC[C@H]2C)C3)OC1` [Compound 29], the EC50 is below 50 nM and the inhibitory constant (Ki) was below 1 nM.

As to `CC(C)S(=O)(=O)N[C@@H]1CC[C@@H](CN2CCC3(CC2)CN(c2ncncc2Oc2ccc(F)cc2C(=O)N2[C@H](C)COC[C@H]2C)C3)OC1` [Compound 30], the EC50 is below 50 nM and the Ki is below 1 nM.

For `C[C@@H]1COC[C@@H](C)N1C(=O)c1cc(F)ccc1Oc1cncnc1N1CC2(CCN(C[C@@H]3CC[C@@H](NS(=O)(=O)C4CC4)CO3)CC2)C1` [Compound 31, N-((3R,6S)-6-((2-(5-(2-((3R,5R)-3,5-dimethylmorpholine-4-carbonyl)-4-fluorophenoxy)pyrimidin-4-yl)-2,7-diazaspiro[3.5]nonan-7-yl)methyl)tetrahydro-2H-pyran-3-yl)cyclopropanesulfonamide], the EC50 was below 50 nM and the Ki is below 1 nM.

Turning to `C[C@@H]1COC[C@@H](C)N1C(=O)c1cc(F)ccc1Oc1cncnc1N1CC2(CCN(C[C@@H]3CC[C@@H](NS(=O)(=O)C4COC4)CO3)CC2)C1` [Compound 32], the EC50 was below 50 nM and the Ki is below 1 nM.

`CCS(=O)(=O)N[C@@H]1CC[C@@H](CN2CCC3(CC2)CN(c2ncncc2Oc2ccc(F)cc2C(=O)N(CCOC)C(C)C)C3)OC1` [Compound 35, 2-((4-(7-(((2S,5R)-5-(ethylsulfonamido)tetrahydro-2H-pyran-2-yl)methyl)-2,7-diazaspiro[3.5]nonan-2-yl)pyrimidin-5-yl)oxy)-5-fluoro-N-isopropyl-N-(2-methoxyethyl)benzamide]: the EC50 is below 50 nM and the Ki is below 1 nM.

For the compound `CCS(=O)(=O)N[C@@H]1CC[C@@H](CN2CCC3(CC2)CN(c2ncncc2Oc2ccc(F)cc2C(=O)N2[C@H](C)CCC[C@@H]2C)C3)OC1` [Compound 36, N-((3R,6S)-6-((2-(5-(2-((2S,6R)-2,6-dimethylpiperidine-1-carbonyl)-4-fluorophenoxy)pyrimidin-4-yl)-2,7-diazaspiro[3.5]nonan-7-yl)methyl)tetrahydro-2H-pyran-3-yl)ethanesulfonamide], the EC50 was below 50 nM and the Ki is below 1 nM.

As for `CCCNC(=O)N[C@@H]1CC[C@@H](CN2CCC3(CC2)CN(c2ncncc2Oc2ccc(F)cc2C(=O)N(CC)C(C)C)C3)OC1` [Compound 38, N-ethyl-5-fluoro-N-isopropyl-2-((4-(7-(((2S,5R)-5-(3-propylureido)tetrahydro-2H-pyran-2-yl)methyl)-2,7-diazaspiro[3.5]nonan-2-yl)pyrimidin-5-yl)oxy)benzamide], the EC50 fell in the range of 50 to 100 nM and the Ki lay within 1 to 1.5 nM.

In the case of `CCNC(=O)N[C@@H]1CC[C@@H](CN2CCC3(CC2)CN(c2ncncc2Oc2ccc(F)cc2C(=O)N(CC)C(C)C)C3)OC1` [Compound 39, N-ethyl-2-((4-(7-(((2S,5R)-5-(3-ethylureido)tetrahydro-2H-pyran-2-yl)methyl)-2,7-diazaspiro[3.5]nonan-2-yl)pyrimidin-5-yl)oxy)-5-fluoro-N-isopropylbenzamide], the EC50 was below 50 nM and the Ki is below 1 nM.

For the compound `CCN(C(=O)c1cc(F)ccc1Oc1cncnc1N1CC2(CCN(C[C@@H]3CC[C@@H](NC(=O)NCC(F)F)CO3)CC2)C1)C(C)C` [Compound 41, 2-((4-(7-(((2S,5R)-5-(3-(2,2-difluoroethyl)ureido)tetrahydro-2H-pyran-2-yl)methyl)-2,7-diazaspiro[3.5]nonan-2-yl)pyrimidin-5-yl)oxy)-N-ethyl-5-fluoro-N-isopropylbenzamide], the half-maximal effective concentration (EC50) lay in the range of 50 to 100 nM and the Ki is below 1 nM.

Regarding `CCN(C(=O)c1cc(F)ccc1Oc1cncnc1N1CC2(CCN(C[C@@H]3CC[C@@H](NC(=O)NCC4CC4)CO3)CC2)C1)C(C)C` [Compound 42, 2-((4-(7-(((2S,5R)-5-(3-(cyclopropylmethyl)ureido)tetrahydro-2H-pyran-2-yl)methyl)-2,7-diazaspiro[3.5]nonan-2-yl)pyrimidin-5-yl)oxy)-N-ethyl-5-fluoro-N-isopropylbenzamide], the EC50 was above 100 nM and the Ki lay in the range of 1 to 1.5 nM.

As for `CCS(=O)(=O)N[C@@H]1CC[C@@H](CN2CCC3(CC2)CN(c2ncncc2Oc2ccc(F)cc2C(=O)N(C(C)C)[C@@H]2CCOC2)C3)OC1` [Compound 46, 2-((4-(7-(((2S,5R)-5-(ethylsulfonamido)tetrahydro-2H-pyran-2-yl)methyl)-2,7-diazaspiro[3.5]nonan-2-yl)pyrimidin-5-yl)oxy)-5-fluoro-N-isopropyl-N-((R)-tetrahydrofuran-3-yl)benzamide], the EC50 was below 50 nM and the Ki is below 1 nM.

On to `CCS(=O)(=O)N[C@@H]1CC[C@@H](CN2CCC3(CC2)CN(c2ncncc2Oc2ccc(F)cc2C(=O)N(C(C)C)C2COC2)C3)OC1` [Compound 48, 2-((4-(7-(((2S,5R)-5-(ethylsulfonamido)tetrahydro-2H-pyran-2-yl)methyl)-2,7-diazaspiro[3.5]nonan-2-yl)pyrimidin-5-yl)oxy)-5-fluoro-N-isopropyl-N-(oxetan-3-yl)benzamide], for which the EC50 is below 50 nM and the Ki was below 1 nM.

As to `CCS(=O)(=O)N[C@@H]1CC[C@@H](CN2CCC3(CC2)CN(c2ncncc2Oc2ccc(F)cc2C(=O)N(C(C)C)[C@H]2C[C@@H](O)C2)C3)OC1` [Compound 50, 2-((4-(7-(((2S,5R)-5-(ethylsulfonamido)tetrahydro-2H-pyran-2-yl)methyl)-2,7-diazaspiro[3.5]nonan-2-yl)pyrimidin-5-yl)oxy)-5-fluoro-N-((1s,3s)-3-hydroxycyclobutyl)-N-isopropylbenzamide], the EC50 was below 50 nM and the inhibition constant (Ki) is below 1 nM.

The compound `COCCN(C(=O)c1cc(F)ccc1Oc1cncnc1N1CC2(CCN(C[C@@H]3CC[C@@H](NS(=O)(=O)C4CC4)CO3)CC2)C1)C(C)C` [Compound 51, 2-((4-(7-(((2S,5R)-5-(cyclopropanesulfonamido)tetrahydro-2H-pyran-2-yl)methyl)-2,7-diazaspiro[3.5]nonan-2-yl)pyrimidin-5-yl)oxy)-5-fluoro-N-isopropyl-N-(2-methoxyethyl)benzamide] registered an EC50 below 50 nM.

(Values after patent publication US11919901B2 (Syndax Pharmaceuticals, Inc., priority 2021, dated 2024).)
